Experimental data taken from article PMC8309005, “Novel Non-Congeneric Derivatives of the Choline Kinase Alpha Inhibitor ICL-CCIC-0019” (Pharmaceutics, 2021).

What was measured:
[1] = tested on: HepG2 cells; test: Anti-proliferative SRB assay, HepG2; format: cell-based; details: Homo sapiens, 72 h, Table S2, ± SD
Description: (§1) Half-maximal growth inhibitory concentrations (GI50) were determined using sulforhodamine B (SRB) assay as described elsewhere. In brief, cells were seeded in 96-wells at respective cell densities determined by their cell growth curves. After 24 h, the cells were treated in six replicates with medium or different concentrations of CHKA inhibitors in medium and incubated for another 72 h. On completion of incubation, the cells were fixed with 10% trichloroacetic acid (TCA) and stained with 0.4% SRB in 1% acetic acid. The stained protein was solubilized with 10 mM Tris base and optical density values were measured at 540 nm using a Multiskan® EX Micro plate photometer (Thermo Scientific, Loughborough, UK). Growth inhibition curves were plotted as percentage of the control groups and GI50 data were determined by least squares fitting method using GraphPad Prism 7.0. All the chemicals used in this experiment were obtained from Sigma-Aldrich (Gillingham, UK).

[2] = tested on: Caco-2 cells; test: Anti-proliferative SRB assay, Caco-2; format: cell-based; details: Homo sapiens; Caco-2, SRB, 72 h; Table S2, ± SD
Description: as §1

[3] = tested on: LNCap cell line; test: Anti-proliferative SRB assay, LNCap; format: cell-based; details: Homo sapiens, PSMA +, Table S3, ± SD
Description: as §1

[4] = tested on: PC3 cell line; test: Anti-proliferative SRB assay, PC3; format: cell-based; details: Homo sapiens, PC-3; PC3, PSMA −; Table S3, ± SD
Description: as §1

[5] = tested on: eight cell lines (22Rv1, C4-2B, LNCap, PC3, PNT1A, R1-AD1, R1-D567, HCT-116); test: Anti-proliferative SRB assay, mean across eight cell lines; format: cell-based; details: Homo sapiens
Description: as §1

[6] = target: T1, PIP5K2A (Homo sapiens, UniProt P48426); test: Lipid kinase screening (ADP-Glo), PIP5K2A; format: biochemical
T1 sequence (P48426 1-406): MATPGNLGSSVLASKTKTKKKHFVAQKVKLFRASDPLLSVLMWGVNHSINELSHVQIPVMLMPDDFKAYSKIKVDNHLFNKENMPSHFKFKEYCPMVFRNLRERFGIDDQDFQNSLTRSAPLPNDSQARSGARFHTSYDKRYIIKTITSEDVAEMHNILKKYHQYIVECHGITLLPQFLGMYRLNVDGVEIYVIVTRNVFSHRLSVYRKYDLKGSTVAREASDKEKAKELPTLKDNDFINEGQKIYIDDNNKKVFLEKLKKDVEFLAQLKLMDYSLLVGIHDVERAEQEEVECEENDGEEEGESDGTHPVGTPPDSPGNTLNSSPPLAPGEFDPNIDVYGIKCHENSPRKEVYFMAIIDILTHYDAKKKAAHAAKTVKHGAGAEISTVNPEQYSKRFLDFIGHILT
Description: (§2) The lipid kinase screening for ICL-CCIC-0019, CK14, CK145 (5), CK146 (4) and CK147 (8) (testing concentration for all compounds: 10 μM) was performed by MRC PPU International Centre for Kinase Profiling (Dundee, UK). The lipid kinase screening panel includes 15 human recombinant lipid kinases and the tests used Promega ADP Glo^TM High Throughput Assay kit (Promega, Southampton, UK). For each assay, reference compounds were used as quality control. Finally, mean percentage activity inhibited by compounds and standard deviation for all the repeats were calculated.

[7] = target: T2, SPHK2 (Homo sapiens, UniProt Q9NRA0); test: Lipid kinase screening (ADP-Glo), SPHK2; format: biochemical
T2 sequence (Q9NRA0 1-654): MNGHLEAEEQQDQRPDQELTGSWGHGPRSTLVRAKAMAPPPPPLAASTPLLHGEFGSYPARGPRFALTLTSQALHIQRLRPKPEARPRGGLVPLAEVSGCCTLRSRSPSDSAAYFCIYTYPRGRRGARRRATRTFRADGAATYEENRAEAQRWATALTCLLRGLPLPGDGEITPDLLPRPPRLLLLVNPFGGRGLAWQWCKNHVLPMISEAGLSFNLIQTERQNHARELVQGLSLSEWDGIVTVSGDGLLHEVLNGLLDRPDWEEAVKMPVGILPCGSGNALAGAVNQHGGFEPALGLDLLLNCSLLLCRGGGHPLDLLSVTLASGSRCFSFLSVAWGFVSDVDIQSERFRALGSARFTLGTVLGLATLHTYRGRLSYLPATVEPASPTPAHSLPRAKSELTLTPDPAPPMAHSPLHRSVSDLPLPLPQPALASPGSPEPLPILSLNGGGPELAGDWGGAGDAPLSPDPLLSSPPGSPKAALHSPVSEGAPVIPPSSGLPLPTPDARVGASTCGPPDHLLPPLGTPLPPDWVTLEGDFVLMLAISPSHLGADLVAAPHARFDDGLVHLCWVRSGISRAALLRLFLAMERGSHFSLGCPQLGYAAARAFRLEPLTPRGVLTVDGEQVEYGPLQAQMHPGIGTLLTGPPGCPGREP
Description: as §2

[8] = target: phosphatidylinositol 4-kinase beta (PIK4CB) (Homo sapiens, UniProt Q9UBF8); test: Lipid kinase screening (ADP-Glo), PIK4CB; format: biochemical
Description: as §2

[9] = target: PI4K2a (Homo sapiens, UniProt Q9BTU6); test: Lipid kinase screening (ADP-Glo), PI4K2a; format: biochemical
Description: as §2

[10] = tested on: HCT-116 colorectal cancer cells; test: Cellular uptake and metabolism study in HCT-116 (HPLC); format: cell-based, human; details: HCT-116, 50 μM
Description: The cell pellets were resuspended in 1 mL water: acetonitrile: formic acid (95:5:0.2, v/v/v) and disrupted by an ultrasonic cell disruptor (Soniprep 150, MSE Ltd., London, UK) for 1 min on ice. One hundred microliters of the filtered supernatant from centrifuge (4 °C, 15,000× g) were analyzed by HPLC. Three injections were performed for each sample. […] The HPLC method used in this study is described in Supplementary HPLC method C.

[11] = tested on: C4-2B prostate cancer cells; test: Cellular uptake and metabolism study in C4-2B with or without serum (HPLC); details: 50 μM, 4 h; for mean cellular uptake: mean of ICL-CCIC-0019 and CK146; for detection in cell lysates by HPLC (in words): both FCS groups
Description: Cell lysate sample preparation: C4-2B prostate cancer cells were seeded into cell culture dishes (150 × 25 mm) at a density of 7 × 10^6 per dish. The cells were allowed to settle and grow for another 48 h. The cells were treated with ICL-CCIC-0019, CK146, CK147 and CK148 (50 μM of 7 mL RPMI medium with or without 10% FCS) for 4 h in the incubator. After 4-h incubation, the aliquots of medium were collected (see the medium sample preparation section). Cells were scraped, washed with ice-cold PBS three times and collected by centrifugation (4 °C, 4000× g). The cell pellets were resuspended in 500 μL of chilled acetonitrile:PBS (50:50, v/v) for cell disruption and homogenization. The cell disruption was performed by a Precellys® 24 homogenizer (Bertin Technologies, Montigny-le-Bretonneux, France) at 4 °C. After acetonitrile evaporation at room temperature, 50 μL of cell lysis was taken for protein analysis. Another 100 μL of the supernatant obtained after centrifuge (4 °C, 15,000× g) was resuspended in 100 μL formic acid:water (0.2%, v/v). Next, 100 μL of the filtered solution was analyzed by HPLC system described in Supplementary HPLC method D. Three injections were performed for each sample. Intracellular drug was normalized to cellular protein of each plate using BCA assay. Medium sample preparation for HPLC analysis: 250-μL aliquots of medium (with or without 10% FCS) were transferred into 1.5-mL tube containing 250 μL acetonitrile. After a brief vortex, the tube was placed at 4 °C for 30 min for protein precipitation. One hundred microliters of the resulting supernatant from centrifuge (4 °C, 15,000× g) were resuspended in 100 μL formic acid: water (0.2%, v/v). One hundred microliters of the filtered sample were analyzed by HPLC system described in Supplementary HPLC method D. Three injections were performed for each sample.

[12] = tested on: [18F]D4-FCH uptake in C4-2B cells; test: [18F]D4-FCH uptake in vitro study, C4-2B; format: cell-based; details: Homo sapiens, 1 μM, read-out: inhibition of [18F]D4-FCH uptake (mean of CK14, CK145 and CK146)
Description: HCT-116 and C4-2B cells were seeded at a density of 5 × 10^5 cells per well into 6-well plates and incubated overnight. Cells were treated with 1 or 10 µM CHKA inhibitors (CK14, CK145, CK146 and CK147) for 1 h and pulsed with [^18F]D4-FCH (740 kBq) in presence of inhibitors in 1 mL for an additional hour at 37 °C. Cells were washed with ice-cold PBS three times and lysed in 1 mL RIPA buffer. The radioactivity of 800 µL lysate from each well was counted on a gamma counter (Perkin Elmer, Beaconsfield, UK) and normalized to protein content as determined by BCA assay.

Chain of PI4K2a (Q9BTU6 whole entry): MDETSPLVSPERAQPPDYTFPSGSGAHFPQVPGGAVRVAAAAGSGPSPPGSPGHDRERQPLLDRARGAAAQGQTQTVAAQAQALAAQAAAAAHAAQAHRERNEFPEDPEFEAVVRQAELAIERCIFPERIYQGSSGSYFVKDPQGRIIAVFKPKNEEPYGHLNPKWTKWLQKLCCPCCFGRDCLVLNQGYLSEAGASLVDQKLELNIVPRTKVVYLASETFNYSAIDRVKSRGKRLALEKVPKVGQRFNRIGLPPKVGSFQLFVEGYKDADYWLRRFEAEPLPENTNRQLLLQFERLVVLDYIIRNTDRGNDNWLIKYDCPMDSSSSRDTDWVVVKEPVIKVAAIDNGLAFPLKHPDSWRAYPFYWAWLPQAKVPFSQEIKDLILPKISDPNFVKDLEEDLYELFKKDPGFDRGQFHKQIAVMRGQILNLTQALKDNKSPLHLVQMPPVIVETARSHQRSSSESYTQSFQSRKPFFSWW
Chain of phosphatidylinositol 4-kinase beta (PIK4CB) (Q9UBF8 whole entry): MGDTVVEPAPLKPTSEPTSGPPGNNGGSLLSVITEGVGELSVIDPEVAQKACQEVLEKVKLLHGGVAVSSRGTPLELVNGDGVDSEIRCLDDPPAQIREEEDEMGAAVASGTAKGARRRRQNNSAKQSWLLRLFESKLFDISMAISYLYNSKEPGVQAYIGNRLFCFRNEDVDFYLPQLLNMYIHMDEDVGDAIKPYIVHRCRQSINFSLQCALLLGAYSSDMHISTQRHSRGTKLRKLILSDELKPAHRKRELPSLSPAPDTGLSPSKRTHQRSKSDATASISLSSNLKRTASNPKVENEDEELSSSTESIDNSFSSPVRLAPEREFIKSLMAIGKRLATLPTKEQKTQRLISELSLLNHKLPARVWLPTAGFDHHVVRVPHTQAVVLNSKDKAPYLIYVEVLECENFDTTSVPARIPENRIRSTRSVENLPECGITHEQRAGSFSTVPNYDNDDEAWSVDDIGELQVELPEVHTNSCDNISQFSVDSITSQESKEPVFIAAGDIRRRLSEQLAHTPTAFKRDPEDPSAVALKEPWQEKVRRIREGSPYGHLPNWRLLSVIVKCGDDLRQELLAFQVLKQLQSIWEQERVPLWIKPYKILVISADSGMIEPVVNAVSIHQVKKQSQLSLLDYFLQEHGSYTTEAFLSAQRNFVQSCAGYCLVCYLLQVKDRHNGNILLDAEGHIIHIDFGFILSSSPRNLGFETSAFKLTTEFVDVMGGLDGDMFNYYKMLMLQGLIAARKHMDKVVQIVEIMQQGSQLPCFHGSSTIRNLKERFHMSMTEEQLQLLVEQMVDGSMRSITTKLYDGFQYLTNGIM

Compound: CN(C)c1cc[n+](CCCCCCCCCCCC[n+]2ccc(N(C)C)cc2)cc1 [ICL-CCIC-0019]
- GI50 [1]: 180 ± 10 nM
- GI50 [2]: 1190 ± 40 nM
- GI50 [3]: 300 ± 60 nM
- GI50 [4]: 790 ± 30 nM
- GI50 [5]: 600 ± 100 nM
- inhibition at 10 µM [6]: -16.1%
- inhibition at 10 µM [7]: 22.4%
- inhibition at 10 µM [8]: -24.1%
- inhibition at 10 µM [9]: -13.9%
- cellular uptake relative to CK145 ([10]; 1 h and 2 h post-incubation): approximately two-fold
- mean cellular uptake ([11]; FCS negative group): 34.1 ± 0.6 % μg^−1 protein
- mean cellular uptake ([11]; FCS positive group (10% FCS)): 24.9 ± 1.4 % μg^−1 protein
- detection in cell lysates by HPLC (in words) [11]: detected

Compound: CC(=O)NCCCCC(NC(=O)OC(C)(C)C)C(=O)N1CCN(c2cc[n+](CCCCCCCCCCCCCC[n+]3ccc(N(C)C)cc3)cc2)CC1 (stereo not shown) [CK145]
- GI50 [1]: 2250 ± 60 nM
- GI50 [2]: 10800 ± 1000 nM
- GI50 [3]: 39000 ± 8560 nM
- GI50 [4]: 84900 ± 7030 nM
- inhibition at 10 µM [6]: 0.4%
- inhibition at 10 µM [7]: 13.2%
- inhibition at 10 µM [8]: 51%
- % Inhibition PIK4CB ([8]; 10 μM): 50.6%
- inhibition at 10 µM [9]: -11.4%
- in vitro conversion to CK146 or intermediates (in words) ([10]; 1 h and 2 h, HPLC): not observed
- inhibition at 1 µM [12]: 46 ± 1%

Compound: CN(C)c1cc[n+](CCCCCCCCCCCCCC[n+]2ccc(N3CCNCC3)cc2)cc1 [CK146]
- GI50 [1]: 210 ± 10 nM
- GI50 [2]: 3090 ± 50 nM
- GI50 [3]: 1920 ± 990 nM
- GI50 [4]: 4730 ± 810 nM
- GI50 [5]: 3800 ± 900 nM
- inhibition at 10 µM [6]: 1.4%
- inhibition at 10 µM [7]: 10%
- inhibition at 10 µM [8]: 47%
- inhibition at 10 µM [9]: -13.4%
- inhibition at 1 µM [12]: 46 ± 1%
- mean cellular uptake ([11]; FCS negative group): 34.1 ± 0.6 % μg^−1 protein
- mean cellular uptake ([11]; FCS positive group (10% FCS)): 24.9 ± 1.4 % μg^−1 protein
- detection in cell lysates by HPLC (in words) [11]: detected
